What was measured:
[1] = Omega-3 index in male volunteers after intake of capsules; format: in vivo; conditions: xenon 5-250 vol. %, krypton 5-70 vol. % in Epax 5025 TGN
Procedure: Testing was carried out on 14 male volunteers, age from 38 to 47 years. Control and 5 experimental groups of 2 people each. […] For testing the control group, the product used was Epax Ultra Concentrates (Epax 5025 TGN), manufactured by Epax Norway AS. For experimental group 1 xenon was introduced into the product in concentration of 5 vol. %; for experimental group 2-20 vol. %; for experimental group 3-250 vol. %; for experimental group 4-krypton-5 vol. %; for experimental group 5-24 vol. %; for experimental group 6-70 vol. %. A product saturation with gases was done as described above, but at a small overpressure: krypton at 2.0 mPa, and xenon—0.2 mPa. All products (for control and experimental groups) were encapsulated in soft gelatin capsules weighing 0.5 g. All volunteers took 4 capsules per day, 2 in the morning and 2 in the evening, on an empty stomach. Omega-3 index tests were again taken after 1 month.

[2] = Triacylglycerols (TAG) content in rat serum after bolus intragastric administration of olive oil; format: in vivo, Wistar rats; conditions: 1, 2, and 3 hours after bolus intragastric administration of olive oil; xenon 280 vol. %, krypton 24 vol. %
Procedure: Studies on the effect of xenon on the absorption and transport of triacylglycerols were carried out in an experiment as described [Wang Z., Wang L., Zhang Z., Feng L., Song X., & Wu J. Apolipoprotein A-IV involves in glucose and lipid metabolism of rat//Nutrition & metabolism.-2019.-T. 16.- ? 1.-P. 1-9.], were performed on 12 Wistar rats weighing 320-360 g.
All animals were divided into 3 groups: 1-control, 2-experimental, 3-experimental. The animals were fasted for 6 hours before the experiment, and then rats of the control group (n=4) were injected intragastrically with bolus Extra Virgin olive oil (Aceites Toledo, Spain) at a dose of 1 ml/100 g body weight. […]
An introduction of gases into the oils was carried out using an emulsion production reactor with a volume of 11. […] A content of xenon and krypton in the oil was determined by a gas chromatography method. […]
Triacylglycerols (TAG) content was immediately determined in blood serum using enzyme kits from Chronolab (Spain). For this purpose, 10 μl of serum or standard TAG solution was added to 1 ml of a working reagent, incubated for 5 min at […] in a thermostat and an optical density at 500 nm was determined on a spectrophotometer.

[3] = when injected into the body; cited from earlier work

effect on Omega-3 index [1] | TAG levels versus control [2] | SMILES | time to complete elimination of the gas from the body [3]
dose-dependent increase | significant increase | [Kr] [krypton] | –
dose-dependent increase | significant increase | [Xe] [xenon] | ≤ 4 h
